Laboratory results taken from patent US20260354376A1, “AGENT FOR IMPROVING ENVIRONMENTAL STRESS TOLERANCE” (OAT Agrio Co., Ltd., priority 2023, published 2026).

Assays:
Format in all cases: in vivo
[1] = test system: wheat (variety: Chikugoizumi); experiment: Test Example 11: dryness stress tolerance improvement on wheat (weight of grains per plant); conditions: dryness stress (irrigation about half), 0.1%
Excerpt: In Example 11, wheat (variety: Chikugoizumi) was sown in 1/5000a Wagner pots and cultivated at a density of 2 plants/pot. Next, all pots were irrigated with the same amount of tap water until the ear-emergence stage of wheat, and irrigation with a chemical solution was started after the ear emergence. In this test, dryness stress was induced by reducing the amount of irrigation to about half of the normal amount. After yellow ripening of the wheat was confirmed, the aboveground portions of the wheat were harvested, and the weight of grains per plant was investigated. A 30 ppm aqueous solution of the paprika pigment was used as the chemical solution.
In Comparative Example 13, the same test as in the test of Example 11 using the paprika pigment was repeated, except for using water for irrigation after the ear emergence.
In Reference Example 10, the same test as in the test of Example 11 using the paprika pigment was repeated, except for using a commercially available material for improving salt tolerance (material B) at the dilution factor shown in Table 11. […]
The results of Example 11, and Reference Examples 10 and 11 are expressed as the ratio (%) with respect to the result of Comparative Example 13 (untreated group) taken as 100.

paddy rice (Koshihikari) [2] = experiment: Test Example 4: high-temperature stress tolerance improvement in rice hydroponics (regenerated root length, 35 °C); conditions: for Ratio to Untreated Group (length of regenerated roots): 35 °C (High-Temperature Stress), 6 days, untreated = 100
Protocol: In Example 4, a liquid culture medium prepared by diluting OAT House Fertilizer (registered trademark) Formulation A, manufactured by OAT Agrio Co., Ltd., was placed in an erlenmeyer flask. Then, the above-described capsanthin or paprika pigment was added to the liquid culture medium to give the concentrations shown in Table 4. Next, paddy rice (Koshihikari) was grown to seedlings in culture soil, and then the roots were cut to a predetermined length. Five of the seedlings were inserted into each erlenmeyer flask. Then, after cultivation at 35 °C for 6 days, the length of the roots of the rice was measured, and the length of regenerated roots was calculated.
In Comparative Example 6, the same test as in Example 4 was repeated, except for using the liquid culture medium not containing the capsanthin or paprika pigment.
The results of Example 4 are expressed as the ratio (%) with respect to the result of Comparative Example 6 (untreated group) taken as 100.

paddy rice (Koshihikari) [3] = experiment: Test Example 3: growth-promoting effect in rice hydroponics (regenerated root length, 25 °C); conditions: 25° C. (Growth Promotion), 6 days, untreated = 100
Protocol: In Example 3, a liquid culture medium prepared by diluting OAT House Fertilizer (registered trademark) Formulation A, manufactured by OAT Agrio Co., Ltd., was placed in an erlenmeyer flask. The capsanthin concentration in the paprika pigment (manufactured by San-Ei Gen F. F. I., Inc.) was measured by high performance liquid chromatography at General Incorporated Association Japan Food Research Laboratories. As a result, about 221 mg of capsanthin was contained in 100 g of the paprika pigment. The measurement conditions were as follows. • Model: LC-20 (manufactured by Shimadzu Corporation) • Detector: UV-VIS absorption spectrometer SPD-20AV (manufactured by Shimadzu Corporation) • Column: Shim-pack CLC-SIL (M) (size: 4.6 mm×150 mm) (manufactured by Shimadzu Corporation) • Column temperature: 30 °C. • Mobile phase: mixture of hexane and acetone (81:19) • Flow rate: 1.1 mL/min • Measurement wavelength: 474 nm • Injection volume: 30 μL
Next, paddy rice (Koshihikari) was grown to seedlings in culture soil, and then the roots of the rice were cut to a predetermined length. Five of the cut seedlings were inserted into each erlenmeyer flask containing the above-described liquid culture medium. Then, after cultivation at 25 °C for 6 days, the length of the roots of the rice was measured, and the length of regenerated roots was calculated.
In Comparative Example 5, the same test as in Example 3 was repeated, except for using the liquid culture medium not containing the capsanthin or paprika pigment.
In Reference Example 3, the same test as in Example 3 was repeated, except for using the liquid culture medium containing a commercially available material for improving high-temperature tolerance (material A) at the dilution factor shown in Table 3.
The dilution factor is shown for Reference Example 3, because the content of the active ingredient in the commercially available product is unknown.
The results of Example 3 and Reference Example 3 are expressed as the ratio (%) with respect to the result of Comparative Example 5 (untreated group) taken as 100.

paddy rice (Koshihikari) [4] = experiment: Test Example 5: salt stress tolerance improvement in rice hydroponics (regenerated root length, sodium chloride); conditions: sodium chloride 120 mM, 6 days, untreated = 100
Protocol: In Example 5, a liquid culture medium prepared by diluting OAT House Fertilizer (registered trademark) Formulation A, manufactured by OAT Agrio Co., Ltd., was placed in an erlenmeyer flask. Then, sodium chloride was added to the liquid culture medium to give a final concentration of 120 mM, and the capsanthin or paprika pigment was added to the liquid culture medium to give the concentrations shown in […]. Next, paddy rice (Koshihikari) was grown to seedlings in culture soil, and then the roots were cut to a predetermined length. Five of the seedlings were inserted into each erlenmeyer flask. Then, after cultivation for 6 days, the length of the roots of the rice was measured, and the length of regenerated roots was calculated.
In Comparative Example 7, the same test as in Example 5 was repeated, except for using the liquid culture medium not containing the capsanthin or paprika pigment.
In Reference Example 4, the same test as in Example 5 was repeated, except for using the liquid culture medium containing a commercially available material for improving salt tolerance (material B) at the dilution factor shown in Table 5, instead of the capsanthin and paprika pigment.
The results of Example 5 and Reference Example 4 are expressed as the ratio (%) with respect to the result of Comparative Example 7 (untreated group) taken as 100.

Structure (SMILES)	Weight of Grains, Average ([1]; untreated 7.3)	Weight of Grains, Ratio to Untreated Group ([1]; untreated = 100)	Ratio to Untreated Group (length of regenerated roots) (paddy rice (Koshihikari) [2]; capsanthin 0.00000663 ppm)	Ratio to Untreated Group (length of regenerated roots) (paddy rice (Koshihikari) [2]; capsanthin 0.0000663 ppm)	Ratio to Untreated Group (length of regenerated roots) (paddy rice (Koshihikari) [2]; capsanthin 0.000221 ppm)	Ratio to Untreated Group (length of regenerated roots) (paddy rice (Koshihikari) [2]; capsanthin 0.00221 ppm)	Ratio to Untreated Group (length of regenerated roots) (paddy rice (Koshihikari) [2]; capsanthin 0.00663 ppm)	Ratio to Untreated Group (length of regenerated roots) (paddy rice (Koshihikari) [2]; capsanthin 0.0221 ppm)	Ratio to Untreated Group (length of regenerated roots) (paddy rice (Koshihikari) [2]; capsanthin 0.0663 ppm)	effect compared with paprika pigment (in words) (paddy rice (Koshihikari) [2]; Tables 3 to 5 (25 °C, 35 °C, sodium chloride), same concentrations of capsanthin)	Ratio to Untreated Group (length of regenerated roots) (paddy rice (Koshihikari) [3]; capsanthin 0.00000663 ppm)	Ratio to Untreated Group (length of regenerated roots) (paddy rice (Koshihikari) [3]; capsanthin 0.0000663 ppm)	Ratio to Untreated Group (length of regenerated roots) (paddy rice (Koshihikari) [3]; capsanthin 0.000221 ppm)	Ratio to Untreated Group (length of regenerated roots) (paddy rice (Koshihikari) [3]; capsanthin 0.00221 ppm)	Ratio to Untreated Group (length of regenerated roots) (paddy rice (Koshihikari) [4]; capsanthin 0.0000663 ppm)	Ratio to Untreated Group (length of regenerated roots) (paddy rice (Koshihikari) [4]; capsanthin 0.000221 ppm)	Ratio to Untreated Group (length of regenerated roots) (paddy rice (Koshihikari) [4]; capsanthin 0.00221 ppm)	Ratio to Untreated Group (length of regenerated roots) (paddy rice (Koshihikari) [4]; capsanthin 0.00663 ppm)	Ratio to Untreated Group (length of regenerated roots) (paddy rice (Koshihikari) [4]; capsanthin 0.0221 ppm)	Ratio to Untreated Group (length of regenerated roots) (paddy rice (Koshihikari) [4]; capsanthin 0.0663 ppm)
CC(=O)O [Potassium Acetate, potassium acetate]	9.3 g DW/Plant	126%																		
CC1=C(/C=C/C(C)=C/C=C/C(C)=C/C=C/C=C(C)/C=C/C=C(C)/C=C/C(=O)[C@]2(C)C[C@@H](O)CC2(C)C)C(C)(C)C[C@H](O)C1 [Capsanthin, capsanthin]			115%	132%	113%	122%	114%	109%	140%	comparable effect to that of the paprika pigment	104%	102%	102%	108%	104%	103%	107%	114%	111%	126%
